Experimental data: patent US11773078B2, “Furin inhibitors” (Glaxosmithkline Intellectual Property Development Limited, priority 2018, dated 2023)

Experiments:
[1] = molecular target: T1, Furin (108-574-Tev-Flag-His) enzyme (Homo sapiens, UniProt P09958); test: Furin enzyme assay; assay type: biochemical; details: for IC50: read-out: furin enzyme pIC50 (converted)
T1 construct: Furin (108-574-Tev-Flag-His) enzyme was expressed and purified from CHO cells; TEV cleavage site (C); FLAG (C); His (C); made in house; host or cells: CHO cells
T1 sequence (P09958 108-574): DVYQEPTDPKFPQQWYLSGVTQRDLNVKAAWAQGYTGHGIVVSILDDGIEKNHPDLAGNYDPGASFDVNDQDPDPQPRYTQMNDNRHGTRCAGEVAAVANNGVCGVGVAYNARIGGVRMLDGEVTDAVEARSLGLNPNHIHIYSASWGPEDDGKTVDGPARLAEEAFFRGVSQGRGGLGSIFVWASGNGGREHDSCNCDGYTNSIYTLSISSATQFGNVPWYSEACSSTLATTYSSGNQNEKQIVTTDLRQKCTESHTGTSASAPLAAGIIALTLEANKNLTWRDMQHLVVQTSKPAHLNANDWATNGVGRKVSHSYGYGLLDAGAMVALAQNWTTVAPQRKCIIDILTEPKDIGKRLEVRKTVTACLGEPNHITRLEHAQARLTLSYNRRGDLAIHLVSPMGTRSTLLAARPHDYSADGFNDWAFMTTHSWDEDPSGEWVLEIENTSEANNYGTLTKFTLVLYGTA
Method in brief: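 CHO-expressed, purified furin construct at 40 pM in 100 mM HEPES pH7.5, 1 mM CaCl2, 0.005% Triton X-100. Eleven-point 1:3 series, 0.00017–10 μM final, incubated 2 h at room temperature and read on Envision. pXC50 from four-parameter fit.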

[2] = molecular target: T2, furin (endogenous protease) in U20S cells (Homo sapiens, UniProt P09958); test: Furin cell-based assay (image-based, Golgi-targeted GFP with BMP10 furin/PCSK cleavage site); details: 24-hour incubation, read-out: furin golgi cell pXC50 (converted);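 further: Read-out is mean GFP fluorescence of Golgi puncta per cell by high-content imaging, retained when furin inhibited, over an eleven-point 0.00017–10 µM series, four-parameter fit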
T2 construct: the endogenous protease cleaves GFP; endogenous in cells; host or cells: U2OS cells transduced with a BacMam reporter
T2 sequence (P09958 108-794): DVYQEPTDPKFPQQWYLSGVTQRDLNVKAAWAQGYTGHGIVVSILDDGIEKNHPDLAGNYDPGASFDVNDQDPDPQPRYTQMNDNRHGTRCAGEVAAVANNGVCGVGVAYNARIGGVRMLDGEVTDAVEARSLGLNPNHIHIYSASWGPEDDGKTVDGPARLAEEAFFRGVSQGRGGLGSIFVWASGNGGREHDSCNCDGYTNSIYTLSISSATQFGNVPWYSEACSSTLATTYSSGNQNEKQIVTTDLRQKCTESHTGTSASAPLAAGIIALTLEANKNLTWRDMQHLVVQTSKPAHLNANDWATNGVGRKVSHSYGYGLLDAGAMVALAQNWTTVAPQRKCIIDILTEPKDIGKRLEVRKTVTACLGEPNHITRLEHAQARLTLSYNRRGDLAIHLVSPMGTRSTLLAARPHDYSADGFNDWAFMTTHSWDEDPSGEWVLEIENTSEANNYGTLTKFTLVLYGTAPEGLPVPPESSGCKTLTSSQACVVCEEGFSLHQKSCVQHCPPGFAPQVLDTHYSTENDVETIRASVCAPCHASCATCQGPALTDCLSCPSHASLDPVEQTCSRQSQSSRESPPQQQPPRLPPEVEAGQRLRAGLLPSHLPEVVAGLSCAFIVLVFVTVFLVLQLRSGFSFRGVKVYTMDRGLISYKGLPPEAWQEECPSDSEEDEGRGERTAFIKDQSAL

| SMILES | furin enzyme pIC50 [1] | EC50 [2] [nM] | IC50 [1] [nM] |
| --- | --- | --- | --- |
| NC1(CO)CCN(c2ncc(Oc3cc(CN4CCC(CC(=O)O)CC4)cc(-c4cc(Cl)cc(Cl)c4)n3)cn2)CC1 [Example 165, 2-(1-((2-((2-(4-amino-4-(hydroxymethyl)piperidin-1-yl)pyrimidin-5-yl)oxy)-6-(3,5-dichlorophenyl)pyridin-4-yl)methyl)piperidin-4-yl)acetic acid] | 8.4 | 31.6 | – |
| O=C(O)CC1CCN(Cc2cc(Oc3ccc(N4CCCNCC4)nc3)nc(-c3cc(Cl)cc(Cl)c3)c2)CC1 [Example 166, 2-(1-((2-((6-(1,4-Diazepan-1-yl)pyridin-3-yl)oxy)-6-(3,5-dichlorophenyl)pyridin-4-yl)methyl)piperidin-4-yl)acetic acid] | 8.5 | 63.1 | – |
| CC(=O)NCC1CCN(Cc2cc(Oc3cnc(N4CCN(CCS(C)(=O)=O)CC4)nc3)cc(-c3cc(Cl)cc(Cl)c3)c2)CC1 [Example 167, N-((1-((3′,5′-Dichloro-5-((2-(4-(2-(methylsulfonyl)ethyl)piperazin-1-yl)pyrimidin-5-yl)oxy)-[1,1′-biphenyl]-3-yl)methyl)piperidin-4-yl)methyl)acetamide] | 8.3 | 50.1 | – |
| CC(=O)NCC1CCN(Cc2cc(Oc3cnc(N4CCN(CCC(=O)O)CC4)nc3)cc(-c3cc(Cl)cc(Cl)c3)c2)CC1 [Example 168, 3-(4-(5-((5-((4-(Acetamidomethyl)piperidin-1-yl)methyl)-3′,5′-dichloro-[1,1′-biphenyl]-3-yl)oxy)pyrimidin-2-yl)piperazin-1-yl)propanoic acid] | 9.3 | 25.1 | – |
| CC(=O)NCC1CCN(Cc2cc(Oc3ccc(N4CCN(CCC(=O)O)CC4)nn3)nc(-c3cc(Cl)cc(Cl)c3)c2)CC1 [Example 169, 3-(4-(6-((4-((4-(acetamidomethyl)piperidin-1-yl)methyl)-6-(3,5-dichlorophenyl)pyridin-2-yl)oxy)pyridazin-3-yl)piperazin-1-yl)propanoic acid] | – | 1260 | 0.0316 |
| CC(=O)NCC1CCN(Cc2cc(Oc3cnc(N4CCN(CCC(N)=O)CC4)nc3)cc(-c3cc(Cl)cc(Cl)c3)c2)CC1 [Example 170, 3-(4-(5-((5-((4-(acetamidomethyl)piperidin-1-yl)methyl)-3′,5′-dichloro-[1,1′-biphenyl]-3-yl)oxy)pyrimidin-2-yl)piperazin-1-yl)propanamide] | – | 12.6 | 0.794 |
| CNC(=O)NCC1CCN(Cc2cc(Oc3cnc(N4CCN(CCCO)CC4)nc3)nc(-c3cc(Cl)cc(Cl)c3)c2)CC1 [Example 171, 1-((1-((2-(3,5-dichlorophenyl)-6-((2-(4-(3-hydroxypropyl)piperazin-1-yl)pyrimidin-5-yl)oxy)pyridin-4-yl)methyl)piperidin-4-yl)methyl)-3-methylurea] | 10.7 | 2 | – |
| CC(=O)NCC1CCN(Cc2cc(Oc3cnc(N4CCN(CCC5(C(=O)O)CC5)CC4)nc3)nc(-c3cc(Cl)cc(Cl)c3)c2)CC1 [Example 173, 1-(2-(4-(5-((4-((4-(acetamidomethyl)piperidin-1-yl)methyl)-6-(3,5-dichlorophenyl)pyridin-2-yl)oxy)pyrimidin-2-yl)piperazin-1-yl)ethyl)cyclopropanecarboxylic acid] | – | 1.26 | 0.398 |
| CC(=O)NCC1CCN(Cc2cc(Oc3ccc(N4CCN(CCC(C)C(=O)O)CC4)nc3)nc(-c3cc(Cl)cc(Cl)c3)c2)CC1 (stereo not shown) [Example 174, 4-(4-(5-((4-((4-(acetamidomethyl)piperidin-1-yl)methyl)-6-(3,5-dichlorophenyl)pyridin-2-yl)oxy)pyridin-2-yl)piperazin-1-yl)-2-methylbutanoic acid] | 9.2 | 20 | – |
| COC(=O)NC(=O)CCN1CCN(c2ccc(Oc3cc(CN4CCC(CNC(C)=O)CC4)cc(-c4cc(Cl)cc(Cl)c4)n3)cn2)CC1 [Example 176, methyl (3-(4-(5-((4-((4-(acetamidomethyl)piperidin-1-yl)methyl)-6-(3,5-dichlorophenyl)pyridin-2-yl)oxy)pyridin-2-yl)piperazin-1-yl)propanoyl)carbamate] | 9 | 3.98 | – |
| O=C(O)CC1CCN(Cc2cc(Oc3cnc(N4CCN(CC(O)CO)CC4)nc3)nc(-c3cc(Cl)cc(Cl)c3)c2)CC1 (stereo not shown) [Example 177, 2-(1-((2-(3,5-dichlorophenyl)-6-((2-(4-(2,3-dihydroxypropyl)piperazin-1-yl)pyrimidin-5-yl)oxy)pyridin-4-yl)methyl)piperidin-4-yl)acetic acid] | 9.2 | 20 | – |
| CC(=O)NCC1CCN(Cc2cc(Oc3ccc(N4CC[N+](C)(O)CC4)nc3)nc(-c3cc(Cl)cc(Cl)c3)c2)CC1 [Example 178, 4-(5-((4-((4-(Acetamidomethyl)piperidin-1-yl)methyl)-6-(3,5-dichlorophenyl)pyridin-2-yl)oxy)pyridin-2-yl)-1-methylpiperazine1-oxide] | 8.9 | < 2.51 | – |
| CC(=O)NCC1CCN(Cc2cc(Oc3ccc(N4CC[N+](CCO)(CCO)CC4)nc3)nc(-c3cc(Cl)cc(Cl)c3)c2)CC1 [Example 179, 1-(4-(5-((4-((4-(Acetamidomethyl)piperidin-1-yl)methyl)-6-(3,5-dichlorophenyl)pyridin-2-yl)oxy)pyridin-2-yl)-1-(2-hydroxyethyl)piperazin-1-ium-1-yl)-2-hydroxyethan-1-ide] | 8.8 | 12.6 | – |
| CC(=O)NCC1CCN(Cc2cc(Oc3ccc(N4CC[N+](C)(C)CC4)nc3)nc(-c3cc(Cl)cc(Cl)c3)c2)CC1.[Cl-] [Example 181, 4-(5-((4-((4-(Acetamidomethyl)piperidin-1-yl)methyl)-6-(3,5-dichlorophenyl)pyridin-2-yl)oxy)pyridin-2-yl)-1,1-dimethylpiperazin-1-ium chloride] | 9 | 79.4 | – |
| CC(=O)NCC1CCN(Cc2cc(Oc3ccc(N4C[C@@H]5C[C@H]4CN5CCS(C)(=O)=O)nc3)nc(-c3cc(Cl)cc(Cl)c3)c2)CC1 [Example 183, N-((1-((2-(3,5-Dichlorophenyl)-6-((6-((1S,4S)-5-(2-(methylsulfonyl)ethyl)-2,5-diazabicyclo[2.2.1]heptan-2-yl)pyridin-3-yl)oxy)pyridin-4-yl)methyl)piperidin-4-yl)methyl)acetamide] | – | 12.6 | 0.0251 |
| CC(=O)NCC1CCN(Cc2cc(Oc3ccc(N4CC5CCC(C4)N5CCC(=O)O)nc3)nc(-c3cc(Cl)cc(Cl)c3)c2)CC1 [Example 185, 3-(3-(5-((4-((4-(Acetamidomethyl)piperidin-1-yl)methyl)-6-(3,5-dichlorophenyl)pyridin-2-yl)oxy)pyridin-2-yl)-3,8-diazabicyclo[3.2.1]octan-8-yl)propanoic acid] | 9.5 | 31.6 | – |
| CC(=O)NCC1CCN(Cc2cc(Oc3ccc(N4CCN(CCC(=O)O)[C@@H](C)C4)nc3)nc(-c3cc(Cl)cc(Cl)c3)c2)CC1 [Example 186, (S)-3-(4-(5-((4-((4-(acetamidomethyl)piperidin-1-yl)methyl)-6-(3,5-dichlorophenyl)pyridin-2-yl)oxy)pyridin-2-yl)-2-methylpiperazin-1-yl)propanoic acid] | 9.1 | 39.8 | – |
| O=C(O)CC1CCN(Cc2cc(Oc3ccc(N4C[C@@H]5C[C@H]4CN5)nc3)nc(-c3cc(Cl)cc(Cl)c3)c2)CC1 [Example 187, 2-(1-((2-((6-((1S,4S)-2,5-diazabicyclo[2.2.1]heptan-2-yl)pyridin-3-yl)oxy)-6-(3,5-dichlorophenyl)pyridin-4-yl)methyl)piperidin-4-yl)acetic acid] | – | 79.4 | 1.26 |
| CCC(CCN1CCN(c2ccc(Oc3cc(CN4CCC(CNC(C)=O)CC4)cc(-c4cc(Cl)cc(Cl)c4)n3)cn2)CC1)C(=O)O (stereo not shown) [Example 188, 4-(4-(5-((4-((4-(acetamidomethyl)piperidin-1-yl)methyl)-6-(3,5-dichlorophenyl)pyridin-2-yl)oxy)pyridin-2-yl)piperazin-1-yl)-2-ethylbutanoic acid] | 8.8 | 12.6 | – |
| CC(=O)NCC1CCN(Cc2cc(Oc3ccc(N4CCN(CC(C)(C)C(=O)O)CC4)nc3)nc(-c3cc(Cl)cc(Cl)c3)c2)CC1 [Example 189, 3-(4-(5-((4-((4-(acetamidomethyl)piperidin-1-yl)methyl)-6-(3,5-dichlorophenyl)pyridin-2-yl)oxy)pyridin-2-yl)piperazin-1-yl)-2,2-dimethylpropanoic acid] | 8.7 | 31.6 | – |
| CC(=O)NCC1CCN(Cc2cc(Oc3ccc(N4CCCN(CCC(=O)O)CC4)nc3)nc(-c3cc(Cl)cc(Cl)c3)c2)CC1 [Example 190, 3-(4-(5-((4-((4-(Acetamidomethyl)piperidin-1-yl)methyl)-6-(3,5-dichlorophenyl)pyridin-2-yl)oxy)pyridin-2-yl)-1,4-diazepan-1-yl)propanoic acid] | 10.7 | 158 | – |
| CC(=O)NCC1CCN(Cc2cc(Oc3ccc(N4CCN(CCC(=O)O)C(C)(C)C4)nc3)nc(-c3cc(Cl)cc(Cl)c3)c2)CC1 [Example 191, 3-(4-(5-((4-((4-(acetamidomethyl)piperidin-1-yl)methyl)-6-(3,5-dichlorophenyl)pyridin-2-yl)oxy)pyridin-2-yl)-2,2-dimethylpiperazin-1-yl)propanoic acid] | 9.8 | 39.8 | – |
| CC(=O)NCC1CCN(Cc2cc(Oc3ccc(N4CCCNCC4)nc3)nc(-c3cc(Cl)cc(Cl)c3)c2)CC1 [Example 192, N-((1-((2-((6-(1,4-diazepan-1-yl)pyridin-3-yl)oxy)-6-(3,5-dichlorophenyl)pyridin-4-yl)methyl)piperidin-4-yl)methyl)acetamide] | 10.4 | 15.8 | – |
